pIC50: −log10 of the molar value.
biological target: T1, mGluR5 receptor (pig) (Sus scrofa, UniProt I3LUI7); experiment: [3H]-MPEP bond in the mGluR5 receptor bond assay (pig brain homogenate); format: binding; details: 5 nM [3H]-MPEP; pig brain homogenate
T1 construct: 450 μg protein from brain homogenate is incubated with 5 nM ^3[H]-MPEP; from tissue; host or cells: pig brain halves without medulla, cerebellum and pons
Method: I. Method for Determining the Inhibition of the [^3H]-MPEP Bond in the mGluR5 Receptor Bond Assay
Pig brain homogenate is produced by homogenisation (Polytron PT 3000, Kinematica AG, 10,000 rpm for 90 seconds) of pig brain halves without medulla, cerebellum and pons in buffer pH 8.0 (30 mM Hepes, Sigma, order no. H3375+1 tablet complete to 100 ml, Roche Diagnostics, order no. 1836145) in the ratio 1:20 (brain weight/volume) and differential centrifugation at 900×g and 40,000×g. In each case, 450 μg protein from brain homogenate is incubated with 5 nM ^3[H]-MPEP (Tocris, order no. […]
Thereafter, the batches are filtered with the help of a Brandel Cell Harvester (Brandel, TYP Robotic 9600) on unifilter plates with glass fibre filter mats (Perkin Elmer, order no. 6005177) and subsequently washed with buffer (as above) 3 times with in each case 250 μl per sample. The filter plates are subsequently dried for 60 min at 55° C. 30 μL Ultima Gold™ scintillator (Packard BioScience, order no. 6013159) is subsequently added per well and the samples are measured after 3 hours on the β-counter (Mikrobeta, Perkin Elmer). The unspecific bond is determined by addition of 10 μM MPEP (Tocris, order no. 1212).

T1 sequence (I3LUI7 19-1212): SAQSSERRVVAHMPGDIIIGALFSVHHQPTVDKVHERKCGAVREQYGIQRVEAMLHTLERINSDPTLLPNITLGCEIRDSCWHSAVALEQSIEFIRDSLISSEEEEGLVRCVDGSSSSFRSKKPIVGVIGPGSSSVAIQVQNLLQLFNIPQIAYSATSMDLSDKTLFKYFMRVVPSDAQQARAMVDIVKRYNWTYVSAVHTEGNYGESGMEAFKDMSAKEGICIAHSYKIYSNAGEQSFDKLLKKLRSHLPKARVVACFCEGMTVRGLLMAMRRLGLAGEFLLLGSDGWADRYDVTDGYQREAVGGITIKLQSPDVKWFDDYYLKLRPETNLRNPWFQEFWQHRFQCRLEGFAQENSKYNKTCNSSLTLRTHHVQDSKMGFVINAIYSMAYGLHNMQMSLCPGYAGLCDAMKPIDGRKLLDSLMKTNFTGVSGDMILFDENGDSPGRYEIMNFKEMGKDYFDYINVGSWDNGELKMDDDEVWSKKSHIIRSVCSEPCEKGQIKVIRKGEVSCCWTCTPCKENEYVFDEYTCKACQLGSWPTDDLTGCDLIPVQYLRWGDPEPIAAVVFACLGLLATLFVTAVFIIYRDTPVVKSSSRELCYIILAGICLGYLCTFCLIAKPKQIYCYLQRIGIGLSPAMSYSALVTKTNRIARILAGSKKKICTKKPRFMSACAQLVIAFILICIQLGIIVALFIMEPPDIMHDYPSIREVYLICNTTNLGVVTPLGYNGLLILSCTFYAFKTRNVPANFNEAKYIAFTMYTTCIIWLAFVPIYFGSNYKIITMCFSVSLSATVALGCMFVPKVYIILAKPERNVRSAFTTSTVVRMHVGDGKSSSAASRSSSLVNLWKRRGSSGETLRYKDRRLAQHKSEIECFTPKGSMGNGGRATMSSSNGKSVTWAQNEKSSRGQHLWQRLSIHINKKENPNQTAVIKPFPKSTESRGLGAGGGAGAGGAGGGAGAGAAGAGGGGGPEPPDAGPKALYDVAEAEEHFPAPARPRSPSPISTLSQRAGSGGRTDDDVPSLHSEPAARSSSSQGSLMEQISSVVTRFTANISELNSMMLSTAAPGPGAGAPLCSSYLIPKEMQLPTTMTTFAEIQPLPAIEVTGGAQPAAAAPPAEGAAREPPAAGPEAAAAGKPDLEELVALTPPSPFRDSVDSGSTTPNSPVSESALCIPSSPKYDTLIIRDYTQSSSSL

| pIC50 | SMILES |
| --- | --- |
| 6.85 | CC(Cc1cccnc1)N(C)C(=O)C#Cc1cccc(Cl)c1 (stereo not shown) [Example 247, 3-(3-chlorophenyl)-N-methyl-N-(1-(pyridine-3-yl)propane-2-yl)propiolamide] |
| 7.15 | CC(C)N(CCc1ccccc1)C(=O)C#Cc1cccc(Cl)c1 [Example 238, 3-(3-chlorophenyl)-N-isopropyl-N-phenethylpropiolamide] |
| 7.40 | Cc1cccc(CCNC(=O)C#Cc2cccc(Cl)c2)c1 [Example 224, 3-(3-chlorophenyl)-N-(3-methylphenethyl)propiolamide] |
| 7.80 | CN(CCc1ccccc1F)C(=O)C#Cc1cccc(Cl)c1 [Example 218, 3-(3-chlorophenyl)-N-(2-fluorophenethyl)-N-methylpropiolamide] |
| 7.96 | CN(CCc1cccs1)C(=O)C#Cc1cccc(Cl)c1 [Example 245, 3-(3-chlorophenyl)-N-methyl-N-(2-(thiophene-2-yl)ethyl)propiolamide] |
| 8.70 | CC(Cc1ccccc1)NC(=O)C#Cc1cccc(Cl)c1 (stereo not shown) [Example 242, 3-(3-chlorophenyl)-N-(1-phenylpropane-2-yl)propiolamide] |
| 7.51 | CN(CCn1cccc1)C(=O)C#Cc1cccc(Cl)c1 [Example 233, N-(2-(1H-pyrrol-1-yl)ethyl)-3-(3-chlorophenyl)-N-methylpropiolamide] |

same assay, conditions: 10 μM test compound; 5 nM [3H]-MPEP; 450 μg protein pig brain homogenate; 60 min room temperature

| SMILES | inhibition at 10 µM [%] |
| --- | --- |
| COc1ccccc1CCNC(=O)C#Cc1cccs1 [Example 189, N-(2-methoxyphenethyl)-3-(thiophene-2-yl)propiolamide] | 85 |
| O=C(C#Cc1ccc(F)cc1F)NCCc1cccs1 [Example 117, 3-(2,4-difluorophenyl)-N-(2-(thiophene-2-yl)ethyl)propiolamide] | 33 |
| Cc1cccc(C#CC(=O)NCC(c2ccccc2)c2ccccc2)c1 [Example 71, N-(2,2-diphenylethyl)-3-m-tolylpropiolamide] | 57 |
| Cc1ccc(CCNC(=O)C#Cc2ccccc2)cc1 [Example 66, N-(4-methylphenethyl)-3-phenylpropiolamide] | 64 |
| N#Cc1cccc(C#CC(=O)NCCc2ccc(Cl)c(Cl)c2)c1 [Example 104, 3-(3-cyanophenyl)-N-(3,4-dichlorophenethyl)propiolamide] | 84 |
| CN(CCc1ccccc1)C(=O)C#Cc1ccccc1F [Example 42, 3-(2-fluorophenyl)-N-methyl-N-phenethylpropiolamide] | 90 |
| O=C(C#Cc1ccccc1)NCCc1ccc(F)cc1 [Example 68, N-(4-fluorophenethyl)-3-phenylpropiolamide] | 90 |
| CN(CCc1ccccc1)C(=O)C#Cc1ccc(F)cc1F [Example 78, 3-(2,4-difluorophenyl)-N-methyl-N-phenethylpropiolamide] | 69 |
| COc1cccc(C#CC(=O)NCCc2ccccn2)c1 [Example 6, 3-(3-methoxyphenyl)-N-(2-(pyridine-2-yl)ethyl)propiolamide] | 82 |

Next, values leading:

| inhibition at 10 µM [%] | SMILES |
| --- | --- |
| 91 | O=C(C#Cc1ccccc1)NCCc1ccccc1 [Example 83, N-phenethyl-3-phenylpropiolamide] |
| 89 | O=C(C#Cc1cccc(Cl)c1)NCCc1cccc(Cl)c1 [Example 93, N-(3-chlorophenethyl)-3-(3-chlorophenyl)propiolamide] |
| 77 | COc1ccccc1CCNC(=O)C#Cc1ccc(F)c(C)c1 [Example 134, 3-(4-fluoro-3-methylphenyl)-N-(2-methoxyphenethyl)propiolamide] |
| 69 | Cc1cc(C#CC(=O)NCCc2ccccc2)ccc1F [Example 82, 3-(4-fluoro-3-methylphenyl)-N-phenethylpropiolamide] |
| 53 | O=C(C#Cc1ccc(F)cc1)NCCc1ccc(Cl)cc1 [Example 140, N-(4-chlorophenethyl)-3-(4-fluorophenyl)propiolamide] |
| 64 | O=C(C#Cc1ccc(F)cc1)NCCc1cccc(Cl)c1 [Example 89, N-(3-chlorophenethyl)-3-(4-fluorophenyl)propiolamide] |
